The test system of this series is tobacco budworm (Heliothis virescens [Fabricius]). Particulars: 0.25 millimolar on the surface of the diet, second instar larvae, five-day exposure; for Percent Mortality: compared to total number of insects infested; for Percent Growth Inhibition: inhibition of insect weight relative to untreated controls. The protocol: Candidate insecticides were evaluated for activity against the tobacco budworm (Heliothis virescens [Fabricius]) in a surface-treated diet test.
In this test one mL of molten (65-70° C.) wheat germ-based artificial diet was pipetted into each well of a four by six (24 well) multi-well plate (ID#430345-15.5 mm dia.×17.6 mm deep; Corning Costar Corp., One Alewife Center, Cambridge, Mass. 02140). The diet was allowed to cool to ambient temperature before treatment with candidate insecticide.
The robot subsequently pipetted 40 microliters of the so-prepared solution onto the surface of the diet in each of three wells in the 24 multi-well plate. The process was repeated with solutions of seven other candidate insecticides. […] Appropriate untreated controls containing only DMSO on the diet surface were also included in this test.
For evaluations of the insecticidal activity of a candidate insecticide at varying rates of application, the test was established as described above using sub-multiples of the standard 50 millimolar DMSO solution of candidate insecticide. […] In these evaluations there were six replicates of each rate of application placed on the surface of the diet in the 24 multi-well plate, for a total of four rates of application of candidate insecticide in each plate.
In each well of the test plate was placed one second instar tobacco budworm larvae, each weighing approximately five milligrams. After the larvae were placed in each well, the plate was sealed with clear polyfilm adhesive tape. The tape over each well was perforated to ensure an adequate air supply. The plates were then held in a growth chamber at 25° C. and 60% relative humidity for five days (light 14 hours/day).
After the five-day exposure period insecticidal activity for each rate of application of candidate insecticide was assessed as percent inhibition of insect weight relative to the weight of insects from untreated controls, and percent mortality when compared to the total number of insects infested.

For “tert-butyl 4-{[4-(3,3-dichloroprop-2-enyloxy)-2,6-dichlorophenoxy]methyl}piperidinecarboxylate [Compound 4]”, the “Percent Mortality” value stood at 100% and the “Percent Growth Inhibition” value is reported as 100%.
In the case of “2-{2-[3,4-dichlorophenyl)piperazinyl]ethoxy}-5-(3,3-dichloroprop-2-enyloxy)-1,3-dichlorobenzene [Compound 20]”, the “Percent Mortality” value was 100% and the “Percent Growth Inhibition” value came out at 100%.
For `O=S(=O)(c1ccc(C(F)(F)F)cc1)N1CCN(c2c(Cl)cc(OCC=C(Cl)Cl)cc2Cl)CC1` [Compound 26, 5-(3,3-dichloroprop-2-enyloxy)-1,3-dichloro-2-{4-[4-(trifluoromethyl)phenylsulfonyl]piperazinyl}benzene], the “Percent Mortality” value came to 100% and the “Percent Growth Inhibition” value was 100%.
In the case of `OC1(c2ccc(Cl)cc2)CCN(CCOc2c(Cl)cc(OCC=C(Cl)Cl)cc2Cl)CC1` [Compound 35, 1-{2-[4-(3,3-dichloroprop-2-enyloxy)-2,6-dichlorophenoxy]ethyl}-4-(4-chlorophenyl)piperidin-4-ol], the “Percent Mortality” value turned out to be 100% and the “Percent Growth Inhibition” value stood at 100%.
